# Laboratory results from publication PMC11219871, “Epigenetic-based differentiation therapy for Acute Myeloid Leukemia” (Nature Communications, 2024).
# “And” between values parts separate entries of the source, which are not always exact repeats. Equal values may be shown once. Read-outs that look alike come from different tables or passages of the source.
# Experiments:
# Assay type in all cases: cell-based, human
# MV4-11 [1] = assay: Cell proliferation assay: GI50
# Summary of the method: (§1)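 Suspension cells at 1 × 10^6 cells/mL were treated in triplicate, then incubated 1–3 h with MTS reagent (CellTiter 96 AQueous One) for colorimetric viable-cell read-out. After medium-only background subtraction, absorbance was expressed as % of untreated cells, and GI50 was fitted by non-linear regression.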
# ML-2 [2] = assay: Cell proliferation assay: GI50
# Summary of the method: as §1
# MOLM-13 [3] = assay: Cell proliferation assay: GI50
# Summary of the method: as §1
# HL-60 = assay: Cell proliferation assay: GI50
# Summary of the method: as §1
# ML-2 [4] = assay: Differentiation-apoptosis assay, CD11b / annexin-V / Sytox Green / myeloid markers flow cytometry; set-up: Cell viability: concentration or dose not given beside the values; CD11b levels: unit not given here
# Summary of the method: (§2)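 Differentiation and apoptosis were read by flow cytometry after 15 min dark staining at room temperature with APC-CD11b plus FITC annexin-V, 1 × 10^6 cells/mL in binding buffer. Myeloid markers CD13, HLA-DR and CD14 were stained in separate runs for 30 min, followed by lysis and washing.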
# MV4-11 [5] = assay: as above; set-up: Cell viability (%): concentration or dose not given beside the values; CD11b levels: unit not given here
# Summary of the method: as §2
# MOLM-13 [6] = assay: as above; set-up: Cell viability (%): concentration or dose not given beside the values; CD11b levels: unit not given here
# Summary of the method: as §2
# [7] = tested on: primary AML patient samples; assay: Differentiation assay, CD11b flow cytometry in primary samples; conditions: for CD11b-positive cells (%): daily 48 h
# Method: Next, the cells were washed twice with phosphate-buffered saline (PBS) and resuspended in 1X Binding Buffer at a concentration of 1 × 10^6 cells/mL. An 8-µL aliquot of APC-CD11b (BD Pharmingen, Franklin Lakes, NJ, USA) and 1 µL of FITC annexin-V (AV) (BD Pharmingen, Franklin Lakes, NJ, USA) antibodies were added and incubated for 15 min at room temperature in the dark. Finally, after the addition of 400 µL of 1X Binding Buffer to each tube, samples were collected on a BD FACSCanto flow cytometer (Becton Dickinson, San Jose, CA, USA) and analyzed using FlowJo software.
# Peripheral blood (PB) specimens were obtained from preliminarily diagnosed AML patients who had not received any treatment before specimens were collected. All patients gave informed consent for their participation in this study, which was approved by the Clinical Research Ethics Committee of Clínica Universidad de Navarra. Written informed consent was obtained from each participant. PB was mixed with an ammonium chloride-potassium (ACK) buffer lysis (0.15 mol/L NH4Cl, 10 mmol/L KHCO3, 0.1 mmol/L ethylenediaminetetraacetic acid, pH 7.2) at a 1:2 volume ratio by gentle inversion, incubated for 10 min and centrifuged at 200 g for 10 min. The cell pellet was washed twice with PBS and finally resuspended in EGM2 medium (Cambrex Bioscience, Walkersville, MD). EGM2 contains 2% fetal calf serum, hydrocortisone, heparin, antibiotics, epidermal growth factor, human fibroblast growth factor, insulin-like growth factor, vascular endothelial growth factor, and ascorbic acid. The cells were plated at 1 × 10^6 cells/mL and treated daily with 200 and 500 nM of CM-444 and CM-1758 for 48 h. Next, the differentiation assay was performed as described above.
# [8] = ML-2, 48 h, replicates (Fig 4A)
# [9] = ML-2, daily treatment, time 0 days, replicates 1-3 (Figure 2B)
# [10] = ML-2, daily treatment, time 2 days, replicates 1-3 (Figure 2B)
# [11] = ML-2, daily treatment, time 4 days, replicates 1-3 (Figure 2B)
# [12] = ML-2, daily treatment, time 6 days, replicates 1-3 (Figure 2B)
# [13] = ML-2, daily treatment, time 8 days, replicates 1-3 (Figure 2B)
# [14] = MV4-11, 48 h treatment, replicates 1-3 (Suppl. Fig. 5A)
# [15] = MV4-11, daily treatment, time 0 days
# [16] = MV4-11, daily treatment, time 2 days
# [17] = MV4-11, daily treatment, time 4 days
# [18] = MV4-11, daily treatment, time 6 days
# [19] = MOLM-13, 48 h treatment, replicates 1-3 (Suppl. Fig. 5A)
# [20] = MOLM-13, daily treatment, time 0 days
# [21] = MOLM-13, daily treatment, time 2 days
# [22] = MOLM-13, daily treatment, time 4 days
# [23] = MOLM-13, daily treatment, time 6 days
# [24] = MOLM-13, daily treatment, time 8 days
smiles,measurement,setting,value
"COc1cc2nc(-c3cc(C)oc3C)cc(NCC3CCN(c4ncc(C(=O)NO)cn4)CC3)c2cc1OC [CM-1758, 2-[4-[[[2-(2,5-dimethyl-3-furyl)-6,7-dimethoxy-4-quinolyl]amino]methyl] -1-piperidyl]pyrimidine-5-carbohydroxamic acid]",GI50,"MV4-11 [1]; Homo sapiens, MV4-11, 48 h",292 nM
same,GI50,"MV4-11 [1]; MV4-11, replicates 1-3",498 nM and 125 nM and 252 nM
same,GI50,"ML-2 [2]; Homo sapiens, ML-2, 48 h",844 nM
same,GI50,"ML-2 [2]; Homo sapiens, ML-2, ML-2, replicates 1-3",869 nM
same,GI50,"ML-2 [2]; ML-2, replicates 1-3",812 nM and 849 nM
same,GI50,"MOLM-13 [3]; Homo sapiens, MOLM-13, 48 h",558 nM
same,GI50,"MOLM-13 [3]; Homo sapiens, MOLM-13, MOLM-13, replicates 1-3",412 nM
same,GI50,"MOLM-13 [3]; MOLM-13, replicates 1-3",685 nM and 576 nM
same,GI50,"HL-60; HL-60, replicates 1-3, read-out: GI50",1020 nM and 1180 nM
same,GI50,"HL-60; Homo sapiens, HL-60, 48 h, 48 h, read-out: HL-60 GI50",1190 nM
same,GI50,"HL-60; Homo sapiens, HL-60, HL-60, replicates 1-3, read-out: GI50",1360 nM
same,percentage of CD11b,"ML-2 [4]; ML-2, 260 nM CM-444 or 210 nM CM-1758 daily for 4 days, before injection",> 90%
same,CD11b (%),"ML-2 [4]; ML-2, 48 h",75.6%
same,CD13 (%),"ML-2 [4]; ML-2, 48 h",98.6%
same,CD14 (%),"ML-2 [4]; ML-2, 48 h",2.86%
same,HLA-DR (%),"ML-2 [4]; ML-2, 48 h",17.4%
same,CD11b,ML-2 [4]; [8],64.3% and 61.7% and 64.6%
same,Cell viability,ML-2 [4]; [8],89.3% and 72.6% and 87.1%
same,differentiation level (CD11b),"ML-2 [4]; ML-2, after 6–8 days of treatment",~90%
same,Annexin-V (%),ML-2 [4]; [9],0% and 1.81% and 2.3%
same,CD11b (%),ML-2 [4]; [9],9.3% and 9.32% and 7.24%
same,Annexin-V (%),ML-2 [4]; [10],0% and 5.74% and 8.47%
same,CD11b (%),ML-2 [4]; [10],46.98% and 27.2% and 35.8%
same,Annexin-V (%),ML-2 [4]; [11],10.26% and 4.49% and 5.25%
same,CD11b (%),ML-2 [4]; [11],56.51% and 40.8% and 55.87%
same,Annexin-V (%),ML-2 [4]; [12],4.87% and 1.99% and 9.87%
same,CD11b (%),ML-2 [4]; [12],77.98% and 70% and 78.6%
same,Annexin-V (%),ML-2 [4]; [13],5.37% and 6.87% and 10.45%
same,CD11b (%),ML-2 [4]; [13],88.06% and 83.2% and 89.7%
same,CD11b (%),"ML-2 [4]; ML-2 cell line, replicates 1-3 (Figure 2A)",53.45% and 67.6% and 52.5%
same,CD11b levels,"ML-2 [4]; ML-2 treated daily for 48 h, replicates (Fig 6E)",45.9 and 51.7 and 43.7
same,CD11b (%),"MV4-11 [5]; MV4-11, 48 h",57.9%
same,CD13 (%),"MV4-11 [5]; MV4-11, 48 h",98.1%
same,CD14 (%),"MV4-11 [5]; MV4-11, 48 h",56.2%
same,HLA-DR (%),"MV4-11 [5]; MV4-11, 48 h",38.4%
same,CD11b (%),MV4-11 [5]; [14],47.1% and 53.2% and 55.4%
same,Cell viability (%),MV4-11 [5]; [14],80.4% and 85.9% and 86.75%
same,differentiation level (CD11b),"MV4-11 [5]; MV4-11, after 6–8 days of treatment",~90%
same,CD11b levels,"MV4-11 [5]; MV4-11, daily treatment for 48 h, replicates 1-3 (Suppl. Fig. 9A)",37.8 and 40.7 and 46.2
same,Annexin-V (%),MV4-11 [5]; [15],5.32% and 4.14% and 5.2%
same,CD11b (%),MV4-11 [5]; [15],11.1% and 6.62% and 5.25%
same,Annexin-V (%),MV4-11 [5]; [16],7.65% and 8.98% and 10.24%
same,CD11b (%),MV4-11 [5]; [16],28.2% and 20.4% and 30.4%
same,Annexin-V (%),MV4-11 [5]; [17],26.3% and 27.9% and 28.6%
same,CD11b (%),MV4-11 [5]; [17],44.3% and 46.2% and 46.6%
same,Annexin-V (%),MV4-11 [5]; [18],19.6% and 21.2% and 20.7%
same,CD11b (%),MV4-11 [5]; [18],76% and 75.1% and 74.8%
same,CD11b (%),"MV4-11 [5]; MV4-11 cell line, replicates 1-3 (Figure 2A)",38.46% and 40.4% and 45.7%
same,CD11b (%),"MOLM-13 [6]; MOLM-13, 48 h",93.0%
same,CD13 (%),"MOLM-13 [6]; MOLM-13, 48 h",54.8%
same,CD14 (%),"MOLM-13 [6]; MOLM-13, 48 h",35.6%
same,HLA-DR (%),"MOLM-13 [6]; MOLM-13, 48 h",27.9%
same,CD11b (%),MOLM-13 [6]; [19],93.5% and 87.6% and 86.0%
same,Cell viability (%),MOLM-13 [6]; [19],71.1% and 73.4% and 72.7%
same,differentiation level (CD11b),"MOLM-13 [6]; MOLM-13, after 6–8 days of treatment",~90%
same,CD11b levels,"MOLM-13 [6]; MOLM-13, daily treatment for 48 h, replicates 1-3 (Suppl. Fig. 9A)",61.5 and 58.4 and 65.3
same,Annexin-V (%),MOLM-13 [6]; [20],4.46% and 6.55% and 4.89%
same,CD11b (%),MOLM-13 [6]; [20],6.62% and 4.5% and 6.9%
same,Annexin-V (%),MOLM-13 [6]; [21],11.4% and 10.2% and 9.87%
same,CD11b (%),MOLM-13 [6]; [21],73% and 68.5% and 65.7%
same,Annexin-V (%),MOLM-13 [6]; [22],23.3% and 19.7% and 17.2%
same,CD11b (%),MOLM-13 [6]; [22],83.3% and 80.2% and 78.3%
same,Annexin-V (%),MOLM-13 [6]; [23],23.9% and 24.2% and 20.6%
same,CD11b (%),MOLM-13 [6]; [23],89.9% and 85.1% and 83.1%
same,Annexin-V (%),MOLM-13 [6]; [24],29.4% and 27.5% and 25.4%
same,CD11b (%),MOLM-13 [6]; [24],91.9% and 90.1% and 92.4%
same,CD11b (%),"MOLM-13 [6]; MOLM-13 cell line, replicates 1-3 (Figure 2A)",70.54% and 69.2% and 63%
same,CD11b (%),[7]; primary AML patient sample 1 (Figure 2C),43.21%
same,CD11b (%),[7]; primary AML patient sample 2 (Figure 2C),30.14%
same,CD11b (%),[7]; primary AML patient sample 3 (Figure 2C),23.69%
same,CD11b (%),[7]; primary AML patient sample 4 (Figure 2C),38.45%
same,CD11b (%),[7]; primary AML patient sample 5 (Figure 2C),30.14%
same,CD11b (%),[7]; primary AML patient sample 6 (Figure 2C),35.24%
same,CD11b (%),[7]; primary AML patient sample 7 (Figure 2C),35.47%
same,CD11b (%),[7]; primary AML patient sample 8 (Figure 2C),25.49%
same,CD11b-positive cells (%),"[7]; sample AML-1, 200 nM",30.6%
same,CD11b-positive cells (%),"[7]; sample AML-1, 500 nM",43.2%
same,CD11b-positive cells (%),"[7]; sample AML-2, 200 nM",15.2%
same,CD11b-positive cells (%),"[7]; sample AML-2, 500 nM",30.1%
same,CD11b-positive cells (%),"[7]; sample AML-3, 200 nM",15.5%
same,CD11b-positive cells (%),"[7]; sample AML-3, 500 nM",23.7%
same,CD11b-positive cells (%),"[7]; sample AML-4, 200 nM",21.9%
same,CD11b-positive cells (%),"[7]; sample AML-4, 500 nM",38.4%
same,CD11b-positive cells (%),"[7]; sample AML-5, 200 nM",19.2%
same,CD11b-positive cells (%),"[7]; sample AML-5, 500 nM",30.1%
same,CD11b-positive cells (%),"[7]; sample AML-6, 200 nM",27.2%
same,CD11b-positive cells (%),"[7]; sample AML-6, 500 nM",35.2%
same,CD11b-positive cells (%),"[7]; sample AML-7, 200 nM",30.1%
same,CD11b-positive cells (%),"[7]; sample AML-7, 500 nM",35.5%
same,CD11b-positive cells (%),"[7]; sample AML-8, 200 nM",16.2%
same,CD11b-positive cells (%),"[7]; sample AML-8, 500 nM",25.5%
